Measured values taken from BigSolDB 2.1.

Details: in water

O=C(O)CCCC(=O)O
Details | solubility (mole fraction)
288.05 K | 0.125
292.95 K | 0.151
297.85 K | 0.176
303.25 K | 0.204
308.05 K | 0.232
312.95 K | 0.26
318.05 K | 0.297
322.25 K | 0.328
326.75 K | 0.361
330.85 K | 0.4
